# Measured values from US11052092B2, “N-{[2-(piperidin-1-yl)phenyl](phenyl)methyl}-2-(3-oxo-3,4-dihydro-2H-1,4-benzoxazin-7-yl)acetamide derivatives and related compounds as ROR-gamma modulators for treating autoimmune diseases” (Genfit, priority 2017, dated 2021).
# Where a name gives a salt, the structure may show the parent alone.
row,melting point [°C],SMILES
1,180,"Cc1ccc(C(NC(=O)C2(c3ccc4c(c3)OCC(=O)N4)CC2)c2ccco2)c(C)c1 (centres unmarked) (as salt: HCl) [Cpd. 139, N-[(2,4-dimethylphenyl)(furan-2-yl)methyl]-1-(3-oxo-3,4-dihydro-2H-1,4-benzoxazin-7-yl)cyclopropane-1-carboxamide]"
2,99,"Cc1ccc(C(NC(=O)C2(c3ccc4c(c3)OCC(=O)N4)CC2)c2ccc(Cl)cc2)c(C)c1 (centres unmarked) (as salt: HCl) [Cpd. 140, N-[(4-chlorophenyl)(2,4-dimethylphenyl)methyl]-1-(3-oxo-3,4-dihydro-2H-1,4-benzoxazin-7-yl)cyclopropane-1-carboxamide]"
3,56,"Cc1ccc(C(NC(=O)C2(c3ccc4c(c3)CCC4=O)CC2)c2ccc(C)o2)c(C)c1 (centres unmarked) (as salt: HCl) [Cpd. 141, N-[(2,4-dimethylphenyl)(5-methylfuran-2-yl)methyl]-1-(1-oxo-2,3-dihydro-1H-inden-5-yl)cyclopropane-1-carboxamide]"
4,181,"Cc1ccc(C(NC(=O)C2(c3ccc4c(c3)OCC(=O)N4)CC2)c2cccc(Cl)c2)c(C)c1 (centres unmarked) (as salt: HCl) [Cpd. 143, N-[(3-chlorophenyl)(2,4-dimethylphenyl)methyl]-1-(3-oxo-3,4-dihydro-2H-1,4-benzoxazin-7-yl)cyclopropane-1-carboxamide]"
5,84,"Cc1ccc(C(NC(=O)C2(c3ccc4c(n3)OCC(=O)N4)CC2)c2ccc(C)o2)c(C)c1 (centres unmarked) (as salt: HCl) [Cpd. 144, N-[(2,4-dimethylphenyl)(5-methylfuran-2-yl)methyl]-1-{2-oxo-1H,2H,3H-pyrido[2,3-b][1,4]oxazin-6-yl}cyclopropane-1-carboxamide]"
6,199,"Cc1ccc(C(NC(=O)C2(c3ccc4c(c3)OCC(=O)N4)CC2)c2ccc(Cl)o2)c(N2CCCCC2)c1 (centres unmarked) (as salt: HCl) [Cpd. 145, N-[(5-chlorofuran-2-yl)[4-methyl-2-(piperidin-1-yl)phenyl]methyl]-1-(3-oxo-3,4-dihydro-2H-1,4-benzoxazin-7-yl)cyclopropane-1-carboxamide]"
7,82,"Cc1ccc(C(NC(=O)C2(c3ccc4c(c3)C(C)(C)C(=O)N4)CC2)c2ccc(C)o2)c(C)c1 (centres unmarked) (as salt: HCl) [Cpd. 146, 1-(3,3-dimethyl-2-oxo-2,3-dihydro-1H-indol-5-yl)-N-[(2,4-dimethylphenyl)(5-methylfuran-2-yl)methyl]cyclopropane-1-carboxamide]"
8,115,"COc1ccc(C(NC(=O)C2(c3ccc4c(c3)OCS(=O)(=O)N4)CC2)c2ccc(C)o2)c(Br)c1 (centres unmarked) (as salt: HCl) [Cpd. 147, N-[(2-bromo-4-methoxyphenyl)(5-methylfuran-2-yl)methyl]-1-(2,2-dioxo-1,3-dihydro-4,2,1-benzoxathiazin-6-yl)cyclopropane-1-carboxamide]"
9,105,"Cc1ccc(C(NC(=O)C2(c3ccc4c(c3)OCS(=O)(=O)N4)CC2)c2ccc(C)o2)c(N(C)C)c1 (centres unmarked) (as salt: HCl) [Cpd. 148, N-{[2-(dimethylamino)-4-methylphenyl](5-methylfuran-2-yl)methyl}-1-(2,2-dioxo-1,3-dihydro-4,2,1-benzoxathiazin-6-yl)cyclopropane-1-carboxamide]"
10,102,"Cc1ccc(C(NC(=O)C2(c3ccc4c(c3)OCS(=O)(=O)N4)CC2)c2ccc(Cl)o2)c(C)c1 (centres unmarked) (as salt: HCl) [Cpd. 149, N-[(5-chlorofuran-2-yl)(2,4-dimethylphenyl)methyl]-1-(2,2-dioxo-1,3-dihydro-4,2,1-benzoxathiazin-6-yl)cyclopropane-1-carboxamide]"
11,189,"Cc1cnc(C(NC(=O)C2(c3ccc4c(c3)OCS(=O)(=O)N4)CC2)c2ccc(C)o2)c(C)c1 (centres unmarked) (as salt: HCl) [Cpd. 153, N-[(3,5-dimethylpyridin-2-yl)(5-methylfuran-2-yl)methyl]-1-(2,2-dioxo-1,3-dihydro-4,2,1-benzoxathiazin-6-yl)cyclopropane-1-carboxamide]"

# Second part, the compound before the results:
row,SMILES,melting point [°C]
1,"Cc1ccc(C(NC(=O)Cc2ccc3[nH]cc(C(=O)CS(C)(=O)=O)c3c2)c2ccc(C)o2)c(Br)c1 (centres unmarked) (as salt: HCl) [Cpd. 104, N-[(2-bromo-4-methylphenyl)(5-methylfuran-2-yl)methyl]-2-[3-(2-methanesulfonylacetyl)-1H-indol-5-yl]acetamide]",206
2,"Cc1ccc(C(NC(=O)Cc2ccc3[nH]cc(C(=O)CS(C)(=O)=O)c3c2)c2ccc(C)o2)c(C)c1 (centres unmarked) (as salt: HCl) [Cpd. 107, N-[(2,4-dimethylphenyl)(5-methylfuran-2-yl)methyl]-2-[3-(2-methanesulfonylacetyl)-1H-indol-5-yl]acetamide]",213
3,"Cc1ccc(C(NC(=O)C2(c3ccc4[nH]ccc4c3)CC2)c2ccc(C)o2)c(C)c1 (centres unmarked) (as salt: HCl) [Cpd. 108, N-[(2,4-dimethylphenyl)(5-methylfuran-2-yl)methyl]-1-(1H-indol-5-yl)cyclopropane-1-carboxamide]",62
4,"COc1ccc(C(NC(=O)Cc2ccc3c(ccn3CCC(=O)OC(C)(C)C)c2)c2ccc(C)o2)c(N2CCCCCC2)c1 (centres unmarked) (as salt: HCl) [Cpd. 110, tert-butyl 3-{5-[({[2-(azepan-1-yl)-4-methoxyphenyl](5-methylfuran-2-yl)methyl}carbamoyl)methyl]-1H-indol-1-yl}propanoate]",57
5,"Cc1ccc(C(NC(=O)Cc2ccc3ccn(C(=O)N4CCOCC4)c3c2)c2ccc(C)o2)c(N2CCCCC2)c1 (centres unmarked) (as salt: HCl) [Cpd. 114, N-{[4-methyl-2-(piperidin-1-yl)phenyl](5-methylfuran-2-yl)methyl}-2-[1-(morpholine-4-carbonyl)-1H-indol-6-yl]acetamide]",85
6,"CNS(=O)(=O)c1c[nH]c2ccc(CC(=O)NC(c3ccc(C)o3)c3ccc(C)cc3N3CCCCC3)cc12 (centres unmarked) (as salt: HCl) [Cpd. 115, N-{[4-methyl-2-(piperidin-1-yl)phenyl](5-methylfuran-2-yl)methyl}-2-[3-(methylsulfamoyl)-1H-indol-5-yl]acetamide]",119
7,"Cc1ccc(C(NC(=O)Cc2ccc3[nH]cc(C(=O)N4CCOCC4)c3c2)c2ccc(C)o2)c(N2CCCCC2)c1 (centres unmarked) (as salt: HCl) [Cpd. 120, N-{[4-methyl-2-(piperidin-1-yl)phenyl](5-methylfuran-2-yl)methyl}-2-[3-(morpholine-4-carbonyl)-1H-indol-5-yl]acetamide]",124
8,"COCC(=O)N1Cc2ccc(C3(C(=O)NC(c4ccc(C)o4)c4ccc(C)cc4C)CC3)cc2C1 (centres unmarked) (as salt: HCl) [Cpd. 122, N-[(2,4-dimethylphenyl)(5-methylfuran-2-yl)methyl]-1-[2-(2-methoxyacetyl)-2,3-dihydro-1H-isoindol-5-yl]cyclopropane-1-carboxamide]",55
9,"Cc1ccc(C(NC(=O)Cc2ccc3c(c2)CCN3C(=O)C2CC2)c2ccc(C)o2)c(N2CCCCC2)c1 (centres unmarked) (as salt: HCl) [Cpd. 123, 2-(1-cyclopropanecarbonyl-2,3-dihydro-1H-indol-5-yl)-N-{[4-methyl-2-(piperidin-1-yl)phenyl](5-methylfuran-2-yl)methyl}acetamide]",94
10,"Cc1ccc(C(NC(=O)C2(c3ccc4c(c3)OCS(=O)(=O)N4)CC2)c2ccc(C)o2)c(C)c1 (centres unmarked) (as salt: HCl) [Cpd. 124, N-[(2,4-dimethylphenyl)(5-methylfuran-2-yl)methyl]-1-(2,2-dioxo-1,3-dihydro-4,2,1-benzoxathiazin-6-yl)cyclopropane-1-carboxamide]",96
11,"Cc1ccc(C(NC(=O)C2(c3ccc4c(c3)C(=O)C(=O)N4)CC2)c2ccc(C)o2)c(C)c1 (centres unmarked) (as salt: HCl) [Cpd. 125, N-[(2,4-dimethylphenyl)(5-methylfuran-2-yl)methyl]-1-(2,3-dioxo-2,3-dihydro-1H-indol-5-yl)cyclopropane-1-carboxamide]",192
12,"CC(=O)N1CCc2cc(C3(C(=O)NC(c4ccc(C)o4)c4ccc(C)cc4C)CC3)ccc21 (centres unmarked) (as salt: HCl) [Cpd. 126, 1-(1-acetyl-2,3-dihydro-1H-indol-5-yl)-N-[(2,4-dimethylphenyl)(5-methylfuran-2-yl)methyl]cyclopropane-1-carboxamide]",75
13,"CC(=O)N1Cc2ccc(C3(C(=O)NC(c4ccc(C)o4)c4ccc(C)cc4C)CC3)cc2C1 (centres unmarked) (as salt: HCl) [Cpd. 127, 1-(2-acetyl-2,3-dihydro-1H-isoindol-5-yl)-N-[(2,4-dimethylphenyl)(5-methylfuran-2-yl)methyl]cyclopropane-1-carboxamide]",72
14,"Cc1ccc(C(NC(=O)C2(c3ccc4c(c3)CC(=O)N4C)CC2)c2ccc(C)o2)c(C)c1 (centres unmarked) (as salt: HCl) [Cpd. 130, N-[(2,4-dimethylphenyl)(5-methylfuran-2-yl)methyl]-1-(1-methyl-2-oxo-2,3-dihydro-1H-indol-5-yl)cyclopropane-1-carboxamide]",72
15,"CCN1c2ccc(C3(C(=O)NC(c4ccc(C)o4)c4ccc(C)cc4C)CC3)cc2CS1(=O)=O (centres unmarked) (as salt: HCl) [Cpd. 132, N-[(2,4-dimethylphenyl)(5-methylfuran-2-yl)methyl]-1-(1-ethyl-2,2-dioxo-1,3-dihydro-2,1-benzothiazol-5-yl)cyclopropane-1-carboxamide]",68
16,"Cc1ccc(C(NC(=O)C2(c3ccc4c(c3)CS(=O)(=O)N4C)CC2)c2ccc(C)o2)c(N(C)C)c1 (centres unmarked) (as salt: HCl) [Cpd. 133, N-{[2-(dimethylamino)-4-methylphenyl](5-methylfuran-2-yl)methyl}-1-(1-methyl-2,2-dioxo-1,3-dihydro-2,1-benzothiazol-5-yl)cyclopropane-1-carboxamide]",73
17,"Cc1ccc(C(NC(=O)C2(c3ccc4c(c3)OCC(=O)N4)CC2)c2ccc(C)o2)c(Br)c1 (centres unmarked) (as salt: HCl) [Cpd. 135, N-[(2-bromo-4-methylphenyl)(5-methylfuran-2-yl)methyl]-1-(3-oxo-3,4-dihydro-2H-1,4-benzoxazin-7-yl)cyclopropane-1-carboxamide]",82
18,"Cc1ccc(C(NC(=O)C2(c3ccc4c(c3)OCC(=O)N4)CC2)c2cccc(C)n2)c(C)c1 (centres unmarked) (as salt: HCl) [Cpd. 136, N-[(2,4-dimethylphenyl)(6-methylpyridin-2-yl)methyl]-1-(3-oxo-3,4-dihydro-2H-1,4-benzoxazin-7-yl)cyclopropane-1-carboxamide]",94
